In US10688093B2, “Methods, compositions, and uses of novel Fyn kinase inhibitors” (priority 2015, dated 2020) one finds IC50 data, which are given here for 32 molecules.

Broadly, the IC50 is the concentration that gives 50% inhibition.

In the first assay the target is full-length recombinant human FYN A (Homo sapiens (Human), UniProt P06241). In words: ADP-Glo Kinase Assay of FYN kinase inhibition. Format: biochemical. Particulars: primary screen, initial compounds. From the text: The chemical library was comprised of the SoftFocus ATP-competitive hinge binding compounds described by Harris, C. J., Hill, R. D., Sheppard, D. W., et al., The Design and Application of Target-Focused Compound Libraries. Combinatorial Chemistry and High Throughput Screening 14:521-31 (2011). The specific pharmacore chemistries included SFK52 comprising 6-[R2]-3-[R1]imidazo[1,2-b] pyridazine compounds, SFK33 comprising N-(3-[R2] imidazo [1,2-b] pyridazin-6-yl) [R1] amine compounds, SFK49 comprising N-(5-[R2] imidazo [2,1-b][1,3,4] thiadiazol-2-yl)[R1]-amine compounds, SFK 40 comprising 5-[R2]-3-[R1] pyridin-2-amine compounds, SFK43 comprising 6-[R2]-3-[R1]imidazo[1,2-a]pyrazine compounds, and SFK63. The chemical structures of the initial 600 potential kinase inhibitors are presented in Table 3, with those chosen for additional analysis presented in Table 4. Comparison of the compounds presented in Table 1 and those of Tables 2, 3 and 4, illustrate the novelty of the chemical structures claimed herein.
Chain of full-length recombinant human FYN A (P06241 whole entry): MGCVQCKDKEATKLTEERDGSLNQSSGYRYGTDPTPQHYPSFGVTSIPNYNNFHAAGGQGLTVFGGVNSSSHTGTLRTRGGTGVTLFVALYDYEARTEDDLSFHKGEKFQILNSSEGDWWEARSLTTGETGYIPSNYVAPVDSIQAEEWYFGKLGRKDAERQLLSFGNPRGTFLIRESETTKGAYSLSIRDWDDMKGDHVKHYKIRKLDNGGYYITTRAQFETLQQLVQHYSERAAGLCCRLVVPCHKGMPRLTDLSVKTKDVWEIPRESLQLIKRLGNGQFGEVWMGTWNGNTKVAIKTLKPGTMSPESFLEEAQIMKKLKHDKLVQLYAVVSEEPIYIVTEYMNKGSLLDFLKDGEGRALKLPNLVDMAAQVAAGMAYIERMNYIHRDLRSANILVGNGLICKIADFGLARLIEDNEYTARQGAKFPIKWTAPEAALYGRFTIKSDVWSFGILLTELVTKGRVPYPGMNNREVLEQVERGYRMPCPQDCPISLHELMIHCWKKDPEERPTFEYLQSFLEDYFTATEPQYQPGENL
FYN kinase (10 micrograms) was from the FYN A Kinase Enzyme System (V3571, Promega UK Ltd.), a full-length recombinant human FYN A containing an N-terminal GST tag of about 85 kDa, expressed by bacullovirus in […] insect cells, supplied at a concentration of 0.1 microgram/microliter in 5×reaction buffer. The FYN substrate, a 12 amino acid peptide of the sequence […], containing a single tyrosine phosphorylation site, was custom synthesized (Peptide Synthetics, Peptide Protein Research, Fareham, UK) and supplied as a 4 mg/ml aqueous solution. All other reagents were obtained from Sigma (Sigma-Aldrich, Gillingham, Dorset, UK), with the exception of UltraPure ATP (V9102, Promega UK Ltd.) and the ATP-competitive broad spectrum protein kinase inhibitor staurosporine (569397, Merck Millipore, Watford, Hertfordshire, UK), or as otherwise indicated.
The assay procedure determines the IC50 of each potential FYN kinase inhibitor by measuring the enzyme catalyzed ATP-dependent phosphorylation of the FYN substrate peptide. The ADP-Glo™ Kinase Assay is specifically designed to quantify kinase activity by measuring the ADP produced in the reaction The reaction buffer comprises 40 mM Tris.HCl (pH 7.5), 20 mM MgCl2, 0.1 mg/ml BSA and 5 microM DTT. Individual compounds within the chemical library were dissolved in DMSO at known concentrations. Briefly, 2.5 microliters of reaction buffer containing 3 picograms of FYN kinase and serial dilutions of each potential FYN kinase inhibitor (9 3-fold dilutions of a 10 micromolar top sample) are placed into each well of a 384 well microtiter plate and incubated at room temperature for 30 minutes. An additional 2.5 microliters of reaction buffer containing 100 picograms of the FYN substrate and 12.5 picomoles of ATP are then added to each well and the reaction carried out for 90 minutes at room temperature. The reactions are terminated by addition of 5 microliters of the ADP-Glo™ Reagent component of the ADP-Glo™ Kinase Assay kit to each well. The ADP-Glo™ Reagent comprises an ATP-dependent adenylate cyclase, an inorganic pyrophosphatase and an excess of staurosporine. The adenylate cyclase converts the remaining ATP to cAMP and pyrophospahte, the pyrophosphatase converts the pyrophosphate to phosphate and the staurosporine inhibits the activity of the FYN kinase, the net effect is to remove all residual ATP while preserving the ADP produced by FYN kinase. The terminated reactions are incubated for 40 minutes at room temperature, prior to addition of the Kinase Detection Reagent component of the ADP-Glo™ Kinase Assay kit to each well. The Kinase Detection Reagent comprises pyruvate kinase, phosphoenol pyruvate (PEP), luciferin and luciferase. The pyruvate kinase converts PEP to pyruvate and in the process generates ATP from the residual ADP present in the terminated reaction. […]
With `CC(=O)c1cccc(-c2cnc3sc(NCC(C)C)nn23)c1` [Compound 583, 1-[3-[2-(isobutyl-amino)imidazo [2,1-a][1,3,4]thiadiazol-5-yl]phenyl] ethanone], the IC50 came to 15.1 µM.
Still for that read-out and setting: then `COc1ccc(-c2cnc(N)c(-c3cccc(N(C)C)c3)c2)cc1OC` [382_0135_0079, 5-(3,4-dimethoxy-phenyl)-3-[3-(dimethylamino)phenyl]pyridin-2-amine], with 5.05 µM; and `OCc1cccc(-c2ccnc3[nH]nc(-c4ccc5c(c4)OCO5)c23)c1` [Compound 527, [3-[3-(1,3-benzodioxol-5-yl)-1H-pyrazolo[3,4-b]pyridin-4-yl]phenyl] methanol], with 3.09 µM; and `COc1ccc(-c2cnc3sc(NCc4ccncc4)nn23)cc1OC` [Compound 574, 5-(3,4-dimethoxy-phenyl)-N-(4-pyridylmethyl) imidazo[2,1-b] [1,3,4]thiadiazol-2-amine], with 2.13 µM.
Consider `COc1cc(-c2cnn3ccc(NCc4cccnc4)nc23)cc(OC)c1OC` [294_4003_0087, N-(3-pyridylmethyl)-3-(3,4,5-trimethoxy-phenyl) pyrazolo[1,5-a]pyrimidin-5-amine], for which the IC50 worked out at 2.35 µM.
Same read-out and setting: then `OCc1cccc(-c2ccc3ncc(-c4ccoc4)n3n2)c1` [Compound 459, [3-[3-(3-furyl)imidazo[1,2-b]pyridazin-6-yl]phenyl] methanol], with 7.33 µM; and `c1ccc(-c2cnc3ccc(-c4cccs4)nn23)cc1` [Compound 404, 3-phenyl-6-(2-thienyl)imidazo [1,2-b]pyridazine], with 1.97 µM; and `COc1ccc(-c2cnc3sc(NCCc4ccncc4)nn23)cc1OC` [Compound 550, 5-(3,4-dimethoxy-phenyl)-N-[2-(4-pyridyl)ethyl]imidazo [2,1-b][1,3,4] thiadiazol-2-amine], with 3.14 µM.
For `COc1ccc(-c2cnc3cnc(-c4ccc(O)cc4)cn23)cc1` [388_0280_0080, 4-[3-(4-methoxyphenyl)imidazo[1,2-a]pyrazin-6-yl]phenol], the IC50 is 10.5 µM.
As for `c1cncc(-c2cnc3sc(NCC4CCOCC4)nn23)c1` [Compound 586, 5-(3-pyridyl)-N-(tetrahydropyran-4-ylmethyl) imidazo[2,1-b] [1,3,4]thiadiazol-2-amine], the IC50 stood at 4.85 µM.
`OCc1ccc(-c2cnc3ccc(-c4ccc(F)cc4)nn23)cc1` [Compound 398, [4-[6-(4-fluorophenyl)imidazo[1,2-3]pyridazin-3-yl]phenyl] methanol]: the IC50 was determined as 2.94 µM.
`O=C(NCCO)c1cccc(-c2ccc3ncc(-c4ccccc4)n3n2)c1` [Compound 424, N-(2-hydroxyethyl)-3-(3-phenyl-imidazo[1,2-b]pyridazin-6-yl)benzamide]: the IC50 was determined as 13.9 µM.
`COc1cc(-c2n[nH]c3nccc(-c4cccc(O)c4)c23)cc(OC)c1OC` [Compound 511, 3-[3-(3,4,5-trimethoxy-phenyl)-1H-pyrazolo[3,4-b]pyridin-4-yl]phenol]: the half-inhibitory concentration (IC50) amounted to 5.03 µM.
For `c1cncc(-c2cnc3sc(NCc4ccco4)nn23)c1` [Compound 579, N-(2-furylmethyl)-5-(3-pyridyl)imidazo [2,1-a][1,3,4] thiadiazol-2-amine], the IC50 was 3.16 µM.
Same read-out and setting: in the case of `COc1cc(-c2cc(-c3ccc(F)cc3)cnc2N)ccc1O` [382_0314_0339, 4-[2-amino-5-(4-fluorophenyl)-3-pyridyl]-2-methoxy-phenol] it was 3.24 µM.
On the same count and under the same terms, then `COc1ccc(-c2cnn3c(N)c(-c4cccc(Cl)c4)cnc23)cc1OC` [Compound 255, 6-(3-chlorophenyl)-3-(3,4-dimethoxyphenyl) pyrazolo[1,5-a]pyrimidin-7-amine], with 0.804 µM.
In the case of `COc1cccc(-c2ccc3ncc(-c4ccc(OC)c(OC)c4)n3n2)c1` [Compound 342, 3-(3,4-dimethoxy-phenyl)-6-(3-methoxyphenyl) imidazo[1,2-b]pyridazine], the IC50 turned out to be 0.952 µM.
As for `COc1cc(-c2cnc3ccc(-c4ccc5c(c4)OCO5)nn23)ccc1O` [Compound 450, 4-[6-(1,3-benzodioxol-5-yl)imidazo[1,2-b]pyridazin-3-yl]-2-methoxy-phenol], the IC50 was 0.2 µM.
The same measure, in the same setting: then `Oc1cccc(-c2ccc3ncc(-c4cccc(O)c4)n3n2)c1` [Compound 442, 3-[3-(3-hydroxyphenyl)imidazo[1,2-b]pyridazin-6-yl]phenol], with 0.987 µM; and `COc1cccc(-c2ccc3ncc(-c4cccc(NC(C)=O)c4)n3n2)c1` [Compound 348, N-[3-[6-(3-methoxyphenyl)imidazo[1,2-b]pyridazin-3-yl]phenyl] acetamide], with 0.409 µM; and `CC(=O)Nc1cccc(-c2ccc3ncc(-c4cccc(C(=O)NCCN(C)C)c4)n3n2)c1` [Compound 465, 3-[6-(3-acetamidophenyl)imidazo[1,2-b]pyridazin-3-yl]-N-(2-dimethylamino-ethyl)benzamide], with 3.17 µM.
For the molecule `CC(=O)Nc1ccc(-c2ccnc3[nH]nc(-c4ccsc4)c23)cc1` [Compound 513, N-[4-[3-(3-thienyl)-1H-pyrazolo[3,4-b]pyridin-4-yl]phenyl] acetamide], the IC50 is 4.87 µM.
Still for that read-out and setting: then `COc1ccccc1-c1cc2c(Nc3ccc(NC(C)=O)cc3)nccc2[nH]1` [Compound 597, N-[4-[[2-(2-methoxyphenyl)-1H-pyrrolo[3,2-c]pyridin-4-yl]amino]phenyl] acetamide], with 30 µM; and `c1ccc2oc(-c3cnc4ccc(NCc5ccncc5)nn34)cc2c1` [229_0237_0073, 3-(benzofuran-2-yl)-N-(4-pyridylmethyl) imidazo[1,2-b]pyridazin-6-amine], with 6.45 µM.
Same read-out and setting: then `CN(C)CCNC(=O)c1ccc(-c2cn3c(-c4ccc5c(c4)OCO5)cnc3cn2)cc1` [Compound 237, 4-[3-(1,3-benzodioxol-5-yl)imidazo[1,2-a]pyrazin-6-yl]-N-(2-dimethyl-aminoethyl) benzamide], with 3.8 µM.
Consider `OCCCNc1ccc2ncc(-c3ccc(Oc4ccccc4)cc3)n2n1` [229_0248_1029, 3-[[3-(4-phenoxyphenyl)imidazo[1,2-b]pyridazin-6-yl]amino] propan-1-ol], for which the IC50 amounted to 5.54 µM.
The same measure, in the same setting: in the case of `COc1ccc(CNc2nn3c(-c4ccc(O)c(OC)c4)cnc3s2)cc1` [Compound 559, 2-methoxy-4-[2-[(4-methoxy-phenyl)methyl-amino]imidazo [2,1-b][1,3,4]thiadiazol-5-yl]phenol] it was 1.78 µM.

The assay is the same for the next values; noted with them: secondary screen, re-synthesized and expanded compounds.
In the case of `COc1cncc(-c2cnc3sc(NCc4ccc5c(c4)OCO5)nn23)c1` [BF000714981, N-(1,3-benzodioxol-5-ylmethyl)-5-(5-methoxy-3-pyridyl)-imidazo[2,1-b][1,3,4]-thiadiazol-2-amine], the 50% inhibitory concentration (IC50) came to 0.289 µM.
In the case of `COc1cccc(-c2cnc3ccc(NC4CCOCC4)nn23)c1` [BF000146183, 3-(3-methoxy-phenyl)-N-tetrahydro-pyran-4-yl-imidazo[1,2-b]pyridazin-6-amine], the IC50 was 0.829 µM.
On the same count and under the same terms, in the case of `COc1cc(-c2cnc3cnc(-c4cnn(C)c4)cn23)ccc1O` [BF000333452, 2-methoxy-4-[6-(1-methyl-pyrazol-4-yl)-imidazo[1,2-a]pyrazin-3-yl]phenol] it was 0.624 µM; in that of `CN(C)C(=O)c1cccc(-c2cn3c(-c4ccc(O)cc4)cnc3cn2)c1` [BF000333343, 3-[3-(4-hydroxy-phenyl)-imidazo[1,2-a]pyrazin-6-yl]-N,N-dimethyl-benzamide], 0.871 µM.
With `COc1cncc(-c2cnc3sc(NCc4ccccc4)nn23)c1` [BF000714862, N-benzyl-5-(5-methoxy-3-pyridyl)-imidazo[2,1-b][1,3,4]-thiadiazol-2-amine], the IC50 was 0.217 µM.
